Experimental data from a melting point compilation (Tetko et al.; mined from patent text by program, amines drawn as free bases though some values may be those of a salt).

| melting point | SMILES |
| --- | --- |
| 84 to 90 °C | COC(=O)c1ccc(OCCNC(=O)C2Cc3ccccc3N2S(=O)(=O)c2ccc(-c3ccc(F)cc3)cc2)c(Cl)c1 (configuration not stated) |
| 194 °C | Nc1ccc2nc(-c3ccccc3)cc(OCC(=O)N3CCOCC3)c2c1 |
| 204 to 205 °C | CC(=O)Nc1ccc(OC(=O)C2CSC(=O)N2)cc1 (configuration not stated) |
| 214 to 215 °C | CC(=O)c1c(C)[nH]c(-c2ccccc2)c1N=Cc1ccc(Cl)cc1 |
| 143 to 144 °C | COC(=O)c1c(C(=O)OC)c2sc3ccccc3n2c1C |
| 58 to 61 °C | CC(C)[C@H](NC(=O)N(C)Cc1ccccn1)C(=O)N[C@@H](Cc1ccccc1)C[C@H](O)[C@H](Cc1ccccc1)NC(=O)OCc1cccnc1 |
| 204 to 205 °C | CN1CCC(=C2c3ccccc3C(CO)=C(CO)c3ccccc32)CC1 |
| 172 to 180 °C | CNC(=O)C=C(c1ccc(C#N)cc1)n1ccnc1 |
| 56 to 58.5 °C | CCN(CC)CCCNC(=O)N1CCCC(S(=O)(=O)c2ccccc2)C1 (configuration not stated) |
| 158 to 159 °C | N#Cc1ccc(-c2cccc(C=O)n2)cc1 |
| 142 to 144 °C | Oc1cccc(-n2nc(-c3ccccc3)c3cccnc32)c1 |
| 57 to 58 °C | O=C(Nc1nccs1)C(CC1CCCC1)c1ccc(-c2ccccc2)cc1 (configuration not stated) |
| 105 to 107 °C | c1ccc(-c2nc3ccccc3o2)nc1 |
| 150 to 153 °C | NNC(=O)OCC1c2ccccc2-c2ccccc21 |
| 186 to 187 °C | O=C(O)Cn1cccc(NS(=O)(=O)Cc2ccccc2)c1=O |
| 107 to 108 °C | Cc1nc(N2CCN(Cc3ccc(C(F)(F)F)cc3)C2=O)sc1C(=O)NCc1cccnc1 |
| 165 to 168 °C | Cc1nc2c(s1)CCN(C(=O)c1ccc(NC(=O)c3ccccc3-c3ccccc3)cc1)c1ccccc1-2 |
| 88 °C | COC(=O)CCC#Cc1cc(Cl)ccc1NS(=O)(=O)c1ccc(C(C)=O)cc1 |
| 253 to 254 °C | COc1cc(C(=O)NS(=O)(=O)c2ccccc2)ccc1Cc1csc2ccc(NC(=O)OC3CCCC3)cc12 |
| 146 °C | Cc1ccc(-c2cc(OCC(=O)N3CCOCC3)c3ccccc3n2)cc1 |
| 98 to 101 °C | COc1ccc(C(=O)N2CCN(c3ccc(N)c(CCC(=O)O)c3)CC2)cc1OC |
| 201 to 204 °C | Nc1nc2cc(-c3ccccc3)ccc2c2c1ncn2CCCN1CCCC1=O |
| 195 to 197 °C | CCN1CC(=O)N(CC)c2cc(Nc3ncc(Cl)c(Nc4ccccc4S(=O)(=O)N(C)C)n3)c(OC)cc2C1 |
| 116 to 117 °C | O=C(O)Cc1cc(OCc2cccc(Oc3ccccc3)c2)ccc1Nc1c(Cl)cccc1Cl |
| 145 to 150 °C | CCOC(=O)c1ccc(Nc2ccc([N+](=O)[O-])cc2N)cc1 |
| 234 to 236 °C | O=C(O)CCCCn1c(=O)c2cc(O)ccc2n(CCCCN2CCC(OC(c3ccccc3)c3ccccc3)CC2)c1=O |
| 188 to 190 °C | CC(Cc1ccc(OCc2cccc(C(N)=O)c2)cc1)NCCC(c1ccccc1)c1ccccc1 (configuration not stated) |
| 175 °C | CC(=O)OCc1cc(=O)c(Oc2ccc(F)cc2F)c(-c2ccc(S(C)(=O)=O)cc2)o1 |

| melting point | SMILES |
| --- | --- |
| 238 to 240 °C | Cc1nc(-c2ccccc2)cc(=O)[nH]1 |
| 94 to 95 °C | CCOc1ccc(-c2nc(C=Cc3ccccc3)cs2)cc1OCC |
| 182 to 186 °C | Cc1nccn1-c1nc(NCc2ccccc2)c2ccccc2n1 |
| 108 to 110 °C | COC(=O)NC(CCc1ccccc1)C(=O)O (configuration not stated) |
| 183 to 192 °C | Clc1ccc2ncc3nc(Br)n(-c4ccccc4Cl)c3c2c1 |
| 144 to 146 °C | N=C(NC(=O)Nc1ccccc1[N+](=O)[O-])c1ccccc1 |
| 94 to 96 °C | Cc1ccccc1CC(Cc1ccccc1C)C(=O)O |
| 215 °C | CCNC(=N)NC(=O)c1c(-c2ccccc2)noc1C |
| 165 to 166 °C | OCC1(Oc2ccc3c(c2)c(-c2cc4cccnc4[nH]2)cn3C2(CO)CCC2)CCC1 |
| 153 to 155 °C | N#CC(N=Nc1cc(S(=O)(=O)Cl)ccc1OC(=O)c1ccccc1)=C(OC(=O)c1ccccc1)c1ccccc1 |
| 216 to 218 °C | NNC(=O)c1ccc2oc3ccccc3c2c1 |
| 119 to 121 °C | COc1ccc(N(CCCC(=O)O)C(=O)CCCN(C(=O)c2ccc(Cl)cc2)c2c(C)cccc2C)cc1 |
| 204 to 205 °C | CCc1cc(OCc2ccc(-c3ccccc3C(=O)O)cc2)c2ccccc2n1 |
| 125 to 127 °C | Clc1cccc(Cl)c1-c1nc(-c2ccccc2)c(-c2ccccc2)[nH]1 |
| 125 to 128 °C | CC1CC(=O)NN=C1c1ccc(NC(=O)CCNCC(O)C(Cc2ccccc2)Oc2ccc(CCOCC3CC3)cc2)cc1 (configuration not stated) |
| 80 to 83 °C | COC(=O)CCCCCCCn1cc(-c2ccccc2)c(-c2ccccc2)nc1=O |
| 159 to 161 °C | Cc1cc(O)c2ccccc2c1OCc1ccccc1 |
| 145 to 146 °C | COc1ccc(-c2cc(=O)n(Cc3ccccc3)nc2-c2ccc(OC)cc2)cc1 |
| 305 to 307 °C | CCOC(=O)c1cc(O)cc2nc(-c3ccc(O)cc3)oc12 |
| 52 to 53 °C | COc1cc(CCC#N)c(Br)cc1OCc1ccccc1 |
| 106 to 108 °C | O=C(O)Cc1ccccc1SCc1cc(F)ccc1F |
| 117 to 119 °C | O=C(O)C1CSC(c2cccc(OCCO[N+](=O)[O-])c2)N1 (configuration not stated) |
| 116 to 117 °C | CCOC(=O)CCc1cc(-c2ccc(C)cc2)n(-c2ccc(S(N)(=O)=O)cc2)n1 |
| 55 °C | OCc1ccccc1-c1noc2ccccc12 |
| 215 to 216 °C | CN(C)c1ccc(NC(=O)C(C#N)C(=O)c2nn(-c3ccccc3)c3c2CSc2ccccc2-3)cc1 (configuration not stated) |
| 50 to 51 °C | CCOC(=O)CC(=O)c1ccc(Cl)c(C)c1 |
| 206 to 207 °C | COc1c(NC(=O)Nc2ccc(-c3ccc(CN4CCOCC4)nc3)c3ccccc23)cc(C(C)(C)C)cc1NS(=O)(=O)c1ccccc1 |

More lines, now with the values behind:

| SMILES | melting point |
| --- | --- |
| CC(C)(C)OC(=O)N1CCN(c2ccc(Nc3nc(N)c(C(=O)c4c(Cl)cccc4Cl)s3)cc2)CC1 | 165 to 167 °C |
| COc1ccc2[nH]c(SCc3cc(N)c(Br)cn3)nc2c1 | 183 to 184 °C |
| CC(=O)OCc1nc(C(C)C)c(Sc2cc(Cl)cc(Cl)c2)n1Cc1ccncc1 | 133 to 135 °C |
| COc1ccc(OC)c(CN2CCc3cc(O)ccc3C2)c1 | 178 to 192 °C |
| OCCCCCCCCCCCCCCC(O)CNCCO (configuration not stated) | 103 °C |
| C=Cc1cc(Br)c(Br)cc1Br | 64 °C |
| COc1ccc(-c2oc3c(CC=C(C)C)c(OC4OC(CO)C(O)C(O)C4O)cc(O)c3c(=O)c2OC2OC(C)C(O)C(O)C2O)cc1 (configuration not stated) | 231 to 233 °C |
| Clc1ncnc2c1N(C1CC=CC1)CN2 | 124 to 126 °C |
| COc1ccc(C(=CC(=O)N2CCOCC2)c2ccc([N+](=O)[O-])cc2)cc1OC | 149 to 163 °C |
| OC1(CSc2ccc(-c3ccccc3)cc2)CN2CCC1CC2 (configuration not stated) | 145 to 147 °C |
| CN1C(=O)CC[C@]2(C)c3ccc(-c4ccc([N+](=O)[O-])cn4)cc3CC[C@@H]12 | 70 to 80 °C |
| O=C(CS(=O)Cc1cccs1)C12CC3CC(CC(C3)C1)C2 (configuration not stated) | 95 to 98 °C |
| CN(C)C(Cl)=Nc1snc(C(C)(C)C)c1C#N | 94 to 100 °C |
| CCOC1CC2(C)C(CCC3C4CC5OC5C4(C)CC(N(C)C)C32)CC1O (configuration not stated) | 149 to 151 °C |
| COC(=O)Nc1cc(Oc2ccc3c(ccn3C(=O)Nc3ccc(CN4CCN(C)CC4)c(C(F)(F)F)c3)c2)ncn1 | 138 to 140 °C |
| CCC(=O)c1ccsc1N(C)C(C)=O | 78.5 to 79.5 °C |
| CC(C)NCC(O)COc1cccnc1[N+](=O)[O-] (configuration not stated) | 99 to 101 °C |
| Nc1c(Cl)cc(C(=O)O)c2c1CCO2 | 258 °C |
| COc1cc(OC)c2c(C)cc(=O)[nH]c2c1 | 239 to 240 °C |
| COc1cc(NC(=O)Oc2ccc(N(CCCl)CCCl)cc2)cc(Nc2c3ccccc3nc3ccccc23)c1 | 179 to 180 °C |
| CC(C)C1(C)NC(c2ncc(Br)cc2C(=O)O)=NC1=O (configuration not stated) | 206 to 208 °C |

| SMILES | melting point |
| --- | --- |
| CCCCc1nc2c(N)nc3ccc(OCC(=O)N4CCOCC4)cc3c2n1C | 257 °C |
| COc1cc2c(Nc3ccc(Sc4nccn4C)c(Cl)c3)c(C#N)cnc2cc1F | 295 to 297 °C |
| Cc1cc(C)c([N+](=O)[O-])cc1NC(=O)CC#N | 229 to 230 °C |
| COc1ccc(C2CCCCC2)cc1-c1csc(NC(=O)N2CCN(C(=O)C3CCOCC3)CC2)n1 | 276 °C |
| NC1Cc2ccc(-c3ccc(=O)[nH]n3)cc2C1 (configuration not stated) | 228 to 229 °C |
| OCc1cc(Cl)ccc1I | 115 to 117 °C |
| CCCc1c(C2CCC(c3ccccc3)(N(C)C)CC2)[nH]c2ccccc12 (configuration not stated) | 177 to 181 °C |
| COc1ccc(-c2nc(C)c(C(N)=O)s2)cc1 | 180 °C |
| CCCCCCCCCCCCCCCCCC(=O)NCC(C)(C)COC(=O)CCCCCCCCCCCCCCCCC | 60 to 62 °C |
| CCCn1nc(-c2ccc(OC(=O)CC(C)(C)C)c(F)c2)c2cccc(Cl)c21 | 58 to 59 °C |
| COc1ccc(N2CCCN(/C(C)=C(/C#N)C(N)=S)CC2)cn1 | 159 to 161 °C |
| c1ccc2c(c1)nc1n2CCCSC1 | 155 to 157 °C |
| N#Cc1ccc(C(=C2CCCCCC2)c2ccc(O)cc2)cc1 | 110 to 111 °C |
| ON=Cc1ccncc1 | 180 to 182 °C |
| CCCc1ccc(OCCC(C)C)c2c(=O)cc(-c3nnn[nH]3)oc12 | 199 to 200 °C |
| CC(=O)N(C)C(=O)Oc1cccc2c1OC(C)(C)O2 | 76 to 77 °C |
| CCOC(=O)c1c(-c2ccc(OC)c(OC)c2)c2cc(C)ccc2[nH]c1=O | 220 to 221 °C |
| CCOC1C(NC(=O)C(F)(F)F)CC(OC(=O)c2ccc([N+](=O)[O-])cc2)OC1C (configuration not stated) | 148 to 150 °C |
| COc1cc2c(CCN3CCN(c4cccc(Cl)c4C)CC3)nn(Cc3c[nH]cn3)c2cc1OC | 143 to 144 °C |
| CCn1nc2c(N)nc3ncccc3c2c1CC(C)(C)O | 283 to 286 °C |
| Cn1c(=O)c(-c2ccc(Cl)cc2Cl)cc2c3cc(-c4nc(NC(=O)C5CC5)no4)ccc3n(C)c21 | 292 to 295 °C |
